{"source": "patent US7314866B2", "about": "“Ku-70-derived Bax-suppressing peptides and use thereof for the protection of damaged cells” (Bloodcenter of Wisconsin, Inc., priority 2002, dated 2008)", "key": {"[1]": {"system": "HEK293T cells", "assay": "Bax-induced apoptosis in HEK293T cells (pcDNA3-Bax transfection, Hoechst staining)", "type": "cell-based, human", "details": "for Suppression of Bax-induced apoptosis: peptide delivered into the cells by liposome (BioPorter); for Suppression of Bax-induced apoptosis by co-transfected Ku70 mutant: 2.0 ug pCMV-2B construct co-transfected with pcDNA3-Bax", "experimental": "FIG. 1 illustrates that new peptides designed from Ku70 show anti-Bax activity. FIG. 1A: scheme of Ku70 full-length (Ku70 wt), Ku701-577 (Ku70Δ578–609), or Ku70578-609 (Ku70Δ1–577). FIG. 1C: HEK293T cells were transfected with 1.0 ug of pCMV-2B-control vector (Control) or pcDNA3-Bax (Bax) together with 2.0 ug of pCMV-2B-Ku70 wt (Ku70 wt), pCMV-2B-Ku701-577 (Ku701-577), or pCMV-2B-Ku70578-609 (Ku70578-609). All the cells were also co-transfected with 0.5 ug pEGFP for the marking of transfected cells. Apoptosis in the transfected cells was analyzed 24 hours following transfection with Hoechst dye staining of the nucleus as described in Methods. FIG. 1D: HEK293T cells were incubated with 200 uM peptide composed of Ku70578-587 or Ku70596-600 for 4 hours using BioPorter reagent, and then transfected with 1.0 ug of pCDNA3-control vector (Control) or pcDNA3-Bax (Bax). The number of apoptotic cells was determined as described in FIG. 1C. FIG. 1E: HEK293T cells (10^6 cells) were incubated with 200 uM IPMIK (negative control peptide) or VPMLK (V5) and PMLKE (P5) peptides at the indicated concentrations for 1 hour and then incubated cells were transfected with 1.0 ug of pcDNA3-Bax. Also, unincubated cells were transfected with 1.0 ug of pcDNA3-Bax in the presence or absence of 200 uM z-VAD-fmk. The number of apoptotic cells was determined as described in FIG. 1C. FIG. 1F: Summary of the anti-Bax activity and sequence of all peptides used.\nHEK293T and HeLa cells were cultured in MEM supplemented with 10% fetal bovine serum (FBS) and Du145 cells and mouse embryonic fibroblasts (MEFs) were in DMEM with 10% FBS. Transfection of the plasmids was performed by SuperFect (Qiagen) according to the manufacturer's manual. Apoptosis was induced by pcDNA3-human Bax (Bax-encoding plasmid)-transfection, Staurosporin (STS)-treatment and UVC-irradiation. The amount of the plasmids, the concentration of STS, and the energy of UVC-irradiation are described in the figure legends. Apoptosis in the transfected cells was analyzed as follows: A plasmid encoding enhanced green fluorescent protein (EGFP) (0.5 ug to 10^6 cells) was transfected to all the groups to mark the transfected cells. After the treatment, cells were stained with Hoechst dye and cells with apoptotic nuclei were counted in GFP-expressing cells under the fluorescent microscope as described by Matsuyama, et al., J. Biol. Chem. 273:30995–31001, 1998. Each point in the figures showing percentages of apoptosis represents the mean +/−SE of three experiments. Caspase activities of cells were measured by detecting the cleavage of fluorogenic substrate of Caspase (DEVD-afc) as previously described.\nBioPorter-based peptide delivery was performed 4 hours before apoptosis induction."}, "[2]": {"assay": "Membrane permeability and cellular retention of peptides", "type": "in vitro ADME"}, "[3]": {"biological_target": "T1, interaction of Ku70 and Bax (Homo sapiens, UniProt Q07812)", "T1 construct": "endogenous in cells; HeLa and 293 cells for the V6 peptide", "T1 sequence (Q07812 whole entry)": "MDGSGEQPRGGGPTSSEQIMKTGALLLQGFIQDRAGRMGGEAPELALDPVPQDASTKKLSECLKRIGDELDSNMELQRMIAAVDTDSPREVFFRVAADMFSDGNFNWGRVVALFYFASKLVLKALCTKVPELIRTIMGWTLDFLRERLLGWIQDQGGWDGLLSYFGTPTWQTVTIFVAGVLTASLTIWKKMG", "assay": "Co-immunoprecipitation of endogenous Ku70 and Bax in cell lysates with added peptide", "type": "binding", "details": "peptide added to cell lysates", "experimental": "FIGS. 6A–D: HEK293T cells (10^7 cells) lysed in CHAPS buffer were incubated with 200 uM negative control (NC) peptide or (A) VPMLK (V5, SEQ ID NO: 1), (B) PMLKE (P5, SEQ ID NO: 2), (C) PMLK (P4, SEQ ID NO: 3), and (D) MLKE (M4, SEQ ID NO: 6) at the indicated concentrations for 1 hour. Immunoprecipitation was performed with anti-Ku70 monoclonal antibody or anti-Bax polyclonal antibody using CHAPS buffer as described in Methods. Mouse IgG and pre-immune rabbit serum (NRS) were used as negative controls.\nBy testing several deletion mutants of the Ku70 protein, I have identified the Bax-binding domain in Ku70. The domain comprises 6 amino acids (VPMLKE, SEQ ID NO: 7). This peptide (Ku70 Peptide V6) inhibits the interaction of Ku70 and Bax at the concentration of 20–80 μM in lysates prepared from human cultured cells (HeLa cells and human kidney epithelial 293 cells).\nEndogenous protein: HEK293T (10^7 cells) were lysed in 200 ul of “CHAPS-based buffer” (150 mM NaCl, 10 mM Hepes, pH 7.4, 1.0% CHAPS) containing protease inhibitors (100 times dilution of Protease Inhibitors Cocktail; Sigma) according to the previously reported method (Hsu and Youle, J. Biol. Chem. 273:10777–10783, 1998). […]"}, "[4]": {"biological_target": "T2, endogenous Bax (Homo sapiens, UniProt Q07812)", "T2 construct": "endogenous in cells; host or cells: HEK293T", "T2 sequence (Q07812 whole entry)": "as above", "assay": "Co-immunoprecipitation of Flag-tagged Ku70 mutants and endogenous Bax", "type": "binding", "details": "HEK293T cells", "experimental": "Endogenous protein: HEK293T (10^7 cells) were lysed in 200 ul of “CHAPS-based buffer” (150 mM NaCl, 10 mM Hepes, pH 7.4, 1.0% CHAPS) containing protease inhibitors (100 times dilution of Protease Inhibitors Cocktail; Sigma) according to the previously reported method (Hsu and Youle, J. Biol. Chem. 273:10777–10783, 1998). After precleaning of 600 ul of the sample with 50 ul of Protein G-Sepharose at 4° C. for 1 hour, immunoprecipitations were performed by incubating 200 ul of lysates with 20 ul of Protein G-Sepharose preabsorbed with 2 ug of anti-Bax polyclonal (BD-Pharmingen) or anti-Ku70 monoclonal antibody (BD-Pharmingen) at 4° C. for 2 hours. In some cases, 2 ug of anti-Bax monoclonal antibody (clone 6A7, BD Pharmingen) was used to detect active form of Bax. After extensive washing in the buffer, beads were boiled in 40 ul of Laemmli buffer and 20 ul of the eluted proteins were subjected to SDS-PAGE. Co-precipitation of biotin-labeled peptides and endogenous Bax using streptavidin beads: HEK293T cells (10^7 cells) lysed in 200 ul CHAPS-based buffer were incubated with biotin-labeled negative control (NC) peptide or VPMLK (V5; SEQ ID NO: 1) peptide for 1 hour. The concentrations of NC and V5 peptide labeled with biotin are described in the figure legends. […]"}, "[5]": {"biological_target": "T3, endogenous Bax in Ku70-deficient mouse embryonic fibroblasts (mouse, UniProt Q07813 1-192)", "T3 construct": "also called endogenous Bax in Ku70-deficient MEFs", "T3 sequence (Q07813 whole entry)": "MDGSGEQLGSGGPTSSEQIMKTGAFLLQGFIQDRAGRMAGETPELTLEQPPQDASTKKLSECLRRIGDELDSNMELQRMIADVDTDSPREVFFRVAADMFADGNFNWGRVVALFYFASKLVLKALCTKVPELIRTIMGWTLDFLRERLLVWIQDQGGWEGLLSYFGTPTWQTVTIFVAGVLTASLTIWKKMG", "assay": "Scatchard analysis; FITC fluorescence before and after immunoprecipitation of Bax from Ku70-deficient MEF cytosol", "experimental": "The interaction of BIP and Bax was confirmed by experiments using the system of biotin-labeled BIP and streptavidin beads. Biotin-labeled BIP (biotin-VPMLK; SEQ ID NO: 1), but not negative control peptide (biotin-IPMIK; SEQ ID NO: 5) precipitated Bax from the cell lysates when the streptavidin beads were added to the samples.\nKu70-deficient MEFs (10^7 cells) were lysed in 200 ul of \"detergent-free hypotonic buffer\" (hypotonic (5 mM NaCl) phosphate buffered saline, pH 7.4) containing protease inhibitors (100 times dilution of Protease Inhibitors Cocktail; Sigma) according to the previously reported method (Hsu and Youle, supra, 1998). For Scatchard analysis, the cytosol fraction was used and NaCl was added to prepare the isotonic condition before immunoprecipitation as previously reported (Hsu and Youle, supra, 1998). […] FITC fluorescence of pre-immunoprecipitation (\"B\"+\"F\") and the supernatant following immunoprecipitation (\"F\") were measured by fluorescence microplate reader (Molecular Devices), and the values of \"B+F\" and \"B\" were calculated. Kd was calculated by Scatchard plot. […] No significant binding of FITC-V5 to the cellular components was detected in Bax-immunodepleted samples."}, "[6]": {"biological_target": "T4, human Bax (human, UniProt Q07812 1-192)", "T4 construct": "Protein in cell lysates or cells, not purified; also called endogenous Bax; pcDNA3-Bax (human)", "T4 sequence (Q07812 whole entry)": "as the sequence (Q07812 whole entry) above", "assay": "fluorescence microscopy of HeLa cells and of Du145 cells with or without pcDNA3-Bax", "experimental": "HeLa cells and transfected or untransfected Du145 cells with pcDNA3-Bax were incubated with 200 uM FITC-labeled VPMLK (V5; SEQ ID NO: 1) peptide for 1 hour prior to microscopic analysis by fluorescent microscope. For immunostaining, cells incubated with FITC-V5 peptide for 1 hour were fixed with 4% paraformaldehyde in phosphate buffered saline (PBS). Cells were permeablized with 0.5% Triton X-100 and 0.05% Tween-20 in PBS. Fixed cells were incubated in PBS containing 5% BSA at 37 C, and stained with anti-Bax monoclonal antibody (BD-Pharmingen, dilution 1:50) followed by the detection of Texas-Red labeled anti-mouse IgG (Jackson ImmunoResearch, dilution 1:100)."}}, "note": "Where a SMILES comes first, the peptide text is derived from it. Where no end group is shown, it is not given here."}
{"molecule": "578–587: synthetic peptide of Ku70 amino acids 578–587, 2nd α-helix from the C-terminus (VPMLKEACRA; UniProt P12956 578-587, looked up, fragment)", "values": [{"measurement": "Suppression of Bax-induced apoptosis", "setting": "[1]", "value": "inhibited Bax-induced apoptosis"}]}
{"molecule": "596–600: synthetic peptide of Ku70 amino acids 596–600 (KQELL; UniProt P12956 596-600, looked up, fragment)", "values": [{"measurement": "Suppression of Bax-induced apoptosis", "setting": "[1]", "value": "not"}]}
{"molecule": "CSCC[C@H](NC(=O)[C@@H]1CCCN1)C(=O)N[C@@H](CC(C)C)C(=O)N[C@@H](CCCCN)C(=O)N[C@@H](CCC(=O)O)C(=O)O", "note": "[PMLKE] (H-PMLKE-OH; N-terminus and C-terminus assumed)", "values": [{"measurement": "Membrane permeability", "setting": "[2]", "value": "membrane permeable"}, {"measurement": "Retention of the peptide in the cell", "setting": "[2]", "value": "effectively retained inside the cells"}]}
{"molecule": "CSCC[C@H](NC(=O)[C@@H]1CCCN1)C(=O)N[C@@H](CC(C)C)C(=O)N[C@@H](CCCCN)C(=O)O", "note": "[PMLK] (H-PMLK-OH; N-terminus and C-terminus assumed)", "values": [{"measurement": "Retention of the peptide in the cell", "setting": "[2]", "value": "not retained in the cell"}]}
{"molecule": "CSCC[C@H](NC(=O)[C@@H]1CCCN1C(=O)[C@@H](N)C(C)C)C(=O)N[C@@H](CC(C)C)C(=O)N[C@@H](CCCCN)C(=O)N[C@@H](CCC(=O)O)C(=O)O", "note": "[VPMLKE] (H-VPMLKE-OH; N-terminus and C-terminus assumed)", "values": [{"measurement": "Membrane permeability", "setting": "[2]", "value": "not membrane permeable"}]}
{"molecule": "CSCC[C@H](NC(=O)[C@@H]1CCCN1C(=O)[C@@H](N)C(C)C)C(=O)N[C@@H](CC(C)C)C(=O)N[C@@H](CCCCN)C(=O)O", "note": "[VPMLK] (H-VPMLK-OH; N-terminus and C-terminus assumed)", "values": [{"measurement": "Membrane permeability", "setting": "[2]", "value": "membrane permeable"}, {"measurement": "Retention of the peptide in the cell", "setting": "[2]", "value": "effectively retained inside the cells"}]}
{"molecule": "Ku70 Peptide NC: immediate next six amino acid sequence of Ku70, negative control (LGKFTV) [reference compound]", "values": [{"measurement": "Effect on the interaction of Ku70 and Bax", "setting": "[3]", "value": "did not affect the interaction of Ku70 and Bax"}]}
{"molecule": "Ku701-577: Ku70 mutant deleted of amino acids 578–609", "values": [{"measurement": "Binding of Flag-tagged Ku70 mutant to endogenous Bax", "setting": "[4]", "value": "did not"}, {"measurement": "Suppression of Bax-induced apoptosis by co-transfected Ku70 mutant", "setting": "[1]", "value": "not"}]}
{"molecule": "Ku70578-609: Flag-tagged Ku70 mutant expressing the amino acids 578–609 of Ku70 (VPMLKEACRAYGLKSGLKKQELLEALTKHFQD; also: Flag-tagged)", "values": [{"measurement": "Binding of Flag-tagged Ku70 mutant to endogenous Bax", "setting": "[4]", "value": "binds endogenous Bax"}, {"measurement": "Suppression of Bax-induced apoptosis by co-transfected Ku70 mutant", "setting": "[1]", "value": "suppressed Bax-induced apoptosis"}]}
{"molecule": "MLKE [four amino acid deletion peptide]", "values": [{"measurement": "Effect on the interaction of Ku70 and Bax", "setting": "[3]", "value": "did not interfere with Bax-Ku70 interaction"}]}
{"molecule": "VPMLK (also: FITC-labeled, position of label not given here, also called FITC-BIP; FITC-V5)", "note": "[FITC-labeled BIP (VPMLK; SEQ ID NO: 1)]", "values": [{"measurement": "Kd", "setting": "[5]", "value": 1300, "unit": "nM"}, {"measurement": "binding result", "setting": "[6]", "value": "binds"}]}
